Test results from publication PMC11357256, “Selectivity Screening and Structure–Cytotoxic Activity Observations of Selected Oleanolic Acid (OA)-Type Saponins from the Amaranthaceae Family on a Wiade Panel of Human Cancer Cell Lines” (Molecules, 2024).

What was measured:
FTC133 = test: MTT cell viability assay, FTC133 follicular thyroid carcinoma cells; format: cell-based, human; settings: for IC50: Homo sapiens, FTC-133
From the text: (§1) Cell lines used in the study were grouped as follows: skin panel (melanomas: HTB140, derived from metastatic site: lymph node, ATCC Hs 294 T; malignant A375, ATCC CRL-1619; stage I primary WM793, RRID:CVCL 8787; skin keratinocytes HaCaT); prostate panel (prostate carcinomas: Du145, derived from metastatic site: brain, ATCC HTB-81; grade IV PC3, derived from metastatic site: bone, ATCC CRL-1435, LNCaP, derived from the metastatic site: lymph node, ATCC CRL-1740; prostate epithelial, PNT2, ECACC 95012613); gastrointestinal panel (colorectal adenocarcinomas: Caco2, ATCC HTB-37, HT29, ATCC HTB-38, DLD-1, ATCC CCL-221, HCT116, ATCC CCL-247, and colon epithelial cells CCD 841 CoN, ATCC CRL-1790; hepatocellular carcinoma HepG2, ATCC HB-8065); thyroid panel (follicular thyroid carcinoma FTC133, ECACC 9406090, undifferentiated thyroid carcinoma 8505C, ECACC 94090184, papillary thyroid carcinoma TPC-1, SCC147, normal thyroid follicular epithelial Nthy-ori 3–1, ECACC 90011609); and breast panel (ER-positive breast adenocarcinoma MCF7, ATCC HTB-22; ER-negative breast adenocarcinoma MDA-MB-231, ATCC HTB-26; breast epithelial MCF10A, ATCC CRL-10317). Cells were grown under standard conditions (37 °C, 5% CO2, relative humidity), and culture media (DMEM/F12 for PNT2, WM 793, HT29, PC3, FTC133, 8505 C, MDA-MB-231, TPC-1; DMEM Low Glucose for DU145; DMEM High Glucose for HTB140, A375, HaCaT; MEM with NEAA for Caco2 and MCF7; RPMI1640 with sodium pyruvate for LNCaP; DMEM/F12 with 20 ng/mL epidermal growth factor (EGF), 10 μg/mL insulin, 0.5 μg/mL hydrocortisone, 100 ng/mL cholera toxin) for MCF10A) supplemented with 10% fetal bovine serum (FBS) or 5% donor horse serum for MCF10A, and 1% antibiotics solution (10,000 U penicillin and 10 mg streptomycin/mL) […], as previously described. All cell lines, culture media, and supplements were from Sigma-Aldrich (Germany).
(§2) The cells were seeded in 96-well plates (1.5 × 10^4 cells/well). After 24 h, fresh medium was added, containing the tested compounds (0.5–100 μg/mL) and incubated for 24 or 48 h. Cell viability was determined by MTT assay, according to the manufacturer’s instructions, as described previously. Each experiment was performed in triplicate. The absorbance was measured at 570 nm using a Biotek Synergy microplate reader (BioTek Instruments Inc., Winooski, VT, USA). Cell viability was expressed as a percent of control (untreated cells). Doxorubicin was used as a reference drug.
(§3) The selectivity index (SI) was calculated from the following formula:SI = IC50 of compound in a normal cell line/IC50 of compound in cancer cell line.IC50, half maximal inhibitory concentration, is a concentration required to kill 50% of the cells.

HCT116 = test: MTT cell viability assay, HCT116 colon cancer cells; format: cell-based; settings: Homo sapiens, HCT-116
From the text: as §1, §2

A375 = test: MTT cell viability assay, A375 malignant melanoma cells; format: cell-based, human; settings: for IC50: Homo sapiens, A-375
From the text: as §1, §2, §3

PC3 = test: MTT cell viability assay, PC3 prostate carcinoma cells; format: cell-based; settings: Homo sapiens, PC-3
From the text: as §1, §2

HT29 = test: MTT cell viability assay, HT29 colorectal adenocarcinoma cells; format: cell-based; settings: Homo sapiens, HT-29
From the text: as §1, §2

MDA-MB-231 = test: MTT cell viability assay, MDA-MB-231 breast adenocarcinoma cells; format: cell-based; settings: Homo sapiens
From the text: as §1, §2

DLD-1 = test: MTT cell viability assay, DLD-1 colon cancer cells; format: cell-based; settings: Homo sapiens
From the text: as §1, §2

HaCaT = test: MTT cell viability assay, HaCaT keratinocytes; format: cell-based; settings: Homo sapiens
From the text: as §1, §2

MCF7 = test: MTT cell viability assay, MCF7 breast adenocarcinoma cells; format: cell-based; settings: Homo sapiens
From the text: as §1, §2

MCF10A = test: MTT cell viability assay, MCF10A normal breast epithelial cells; format: cell-based; settings: Homo sapiens, MCF-10A
From the text: as §1, §2

LNCaP = test: MTT cell viability assay, LNCaP prostate adenocarcinoma cells; format: cell-based; settings: Homo sapiens
From the text: as §1, §2

HTB-140 = test: MTT cell viability assay, HTB-140 metastatic melanoma cells; format: cell-based, human; settings: for IC50: Homo sapiens
From the text: as §1, §2, §3

HepG2 = test: MTT cell viability assay, HepG2 hepatocellular carcinoma cells; format: cell-based; settings: Homo sapiens
From the text: as §1, §2

Caco-2 = test: MTT cell viability assay, Caco-2 colon cancer cells; format: cell-based; settings: Homo sapiens
From the text: as §1, §2

PNT2 = test: MTT cell viability assay, PNT2 normal prostate epithelial cells; format: cell-based; settings: Homo sapiens
From the text: as §1, §2

TPC-1 = test: MTT cell viability assay, TPC-1 papillary thyroid carcinoma cells; format: cell-based, human; settings: for IC50: Homo sapiens, TPC1
From the text: as §1, §2, §3

CCD 841 CoN = test: MTT cell viability assay, CCD 841 CoN normal colon epithelial cells; format: cell-based; settings: Homo sapiens
From the text: as §1, §2

8505C = test: MTT cell viability assay, 8505C undifferentiated thyroid carcinoma cells; format: cell-based, human; settings: for IC50: Homo sapiens, 8505C; for Selectivity Index (SI): IC50 Nthy-ori 3-1 / IC50 8505C
From the text: as §1, §2, §3

Nthy-ori 3-1 = test: MTT cell viability assay, Nthy-ori 3-1 normal thyroid epithelial cells; format: cell-based; settings: Homo sapiens
From the text: as §1, §2

WM793 = test: MTT cell viability assay, WM793 primary melanoma cells; format: cell-based, human; settings: for IC50: Homo sapiens
From the text: as §1, §2, §3

Du-145 = test: MTT cell viability assay, Du-145 prostate carcinoma cells; format: cell-based; settings: Homo sapiens
From the text: as §1, §2

SMILES: CC1(C)CCC2(C(=O)O)CCC3(C)C(=CCC4C5(C)CCC(OC6OC(C(=O)O)C(O)C(OC7OCC(O)C(O)C7O)C6O)C(C)(C)C5CCC43C)C2C1 [MIc, oleanolic acid-3-O-[β-D-xylopyranosyl(1→3)-β-D-glucuronopyranoside]]
- IC50 (FTC133; FTC133, 24 h): 3.5 µg/mL
- IC50 (FTC133; FTC133, 48 h): 2.1 µg/mL
- Selectivity Index (SI) (FTC133; IC50 Nthy-ori 3-1 / IC50 FTC133, 24 h): 24.85
- Selectivity Index (SI) (FTC133; IC50 Nthy-ori 3-1 / IC50 FTC133, 48 h): 30.7
- IC50 (HCT116; HCT116, 24 h): 9.4 µg/mL
- IC50 (HCT116; HCT116, 48 h): 8.3 µg/mL
- IC50 (A375; A375, 24 h): 1.9 µg/mL
- IC50 (A375; A375, 48 h): 0.9 µg/mL
- Selectivity Index (SI) (A375; IC50 HaCaT / IC50 A375, 24 h): 2.7
- IC50 (PC3; PC3, 24 h): 5.5 µg/mL
- IC50 (PC3; PC3, 48 h): 3.4 µg/mL
- IC50 (HT29; HT29, 24 h): 4.2 µg/mL
- IC50 (HT29; HT29, 48 h): 2.9 µg/mL
- IC50 (MDA-MB-231; MDA-MB-231, 24 h): 52.2 µg/mL
- IC50 (MDA-MB-231; MDA-MB-231, 48 h): 16.4 µg/mL
- IC50 (DLD-1; DLD-1, 24 h): 16 µg/mL
- IC50 (DLD-1; DLD-1, 48 h): 8 µg/mL
- IC50 (HaCaT; 24 h): 5.3 µg/mL
- IC50 (HaCaT; 48 h): 2.7 µg/mL
- IC50 (MCF7; MCF7, 24 h): > 100 µg/mL
- IC50 (MCF7; MCF7, 48 h): 29.2 µg/mL
- IC50 (MCF10A; 24 h): > 100 µg/mL
- IC50 (MCF10A; 48 h): > 100 µg/mL
- IC50 (LNCaP; 24 h): > 100 µg/mL
- IC50 (LNCaP; 48 h): > 100 µg/mL
- IC50 (HTB-140; HTB-140, 24 h): 7.8 µg/mL
- IC50 (HTB-140; HTB-140, 48 h): 3 µg/mL
- Selectivity Index (SI) (HTB-140; IC50 HaCaT / IC50 HTB-140, 24 h): 0.7
- IC50 (HepG2; HepG2, 24 h): 12.5 µg/mL
- IC50 (HepG2; HepG2, 48 h): 9.5 µg/mL
- IC50 (Caco-2; Caco-2, 24 h): 7 µg/mL
- IC50 (Caco-2; Caco-2, 48 h): 4.3 µg/mL
- IC50 (PNT2; 24 h): > 100 µg/mL
- IC50 (PNT2; 48 h): > 100 µg/mL
- IC50 (TPC-1; TPC-1, 24 h): 39 µg/mL
- IC50 (TPC-1; TPC-1, 48 h): 39 µg/mL
- Selectivity Index (SI) (TPC-1; IC50 Nthy-ori 3-1 / IC50 TPC-1, 24 h): 2.2
- Selectivity Index (SI) (TPC-1; IC50 Nthy-ori 3-1 / IC50 TPC-1, 48 h): 1.6
- IC50 (CCD 841 CoN; 24 h): > 100 µg/mL
- IC50 (CCD 841 CoN; 48 h): > 100 µg/mL
- IC50 (8505C; 24 h): 10.6 µg/mL
- IC50 (8505C; 48 h): 5.2 µg/mL
- Selectivity Index (SI) (8505C; 24 h): 8.2
- Selectivity Index (SI) (8505C; 48 h): 12.2
- IC50 (Nthy-ori 3-1; 24 h): 86.2 µg/mL
- IC50 (Nthy-ori 3-1; 48 h): 64.4 µg/mL
- IC50 (WM793; WM793, 24 h): 2 µg/mL
- IC50 (WM793; WM793, 48 h): 1 µg/mL
- Selectivity Index (SI) (WM793; IC50 HaCaT / IC50 WM793, 24 h): 2.6
- Selectivity Index (SI) (WM793; IC50 HaCaT / IC50 WM793, 48 h): 2.7
- IC50 (Du-145; DU-145, 24 h): 5.4 µg/mL
- IC50 (Du-145; DU-145, 48 h): 2.8 µg/mL
